How the values were obtained:
[1] = Mouse whole blood stability test; assay type: in vitro ADME; details: mouse, 1 μM
[2] = M3385 metabolism in human liver S9 with NADPH and UDPGA; assay type: in vitro ADME; details: human, 240 min, 10 μM, pH 7.4
From the text: Briefly, hepatocytes are complete liver cells, containing various first-phase and second-phase enzymes that can mediate various metabolic reactions; therefore, it is a better in vitro model to test metabolites. Liver S9 is the supernatant obtained by grinding and centrifuging the liver cells. The enzymes content is lower compared to Hepatocytes. It mainly contains CYP enzymes and some biphasic enzymes (but no biphasic coenzyme), so additional coenzyme (NADPH and UDPGA, etc.) is needed to mediate the biphasic reaction.
The metabolism of model compound M3385 was evaluated in human liver S9 with NADPH and UDPGA as follows:
Assay buffer: 100 mM potassium phosphate buffer (K+/Mg2+ buffer, pH7.4):
The initial stock of liver S9 was diluted in K+/Mg^2+ buffer, pH 7.4 from 20 mg/ml to 2× Liver S9 (2 mg/mL) with alamethicin (50 μg/mL):
2×LS9/compound M3385 solution was prepared.
Time zero/T0: 199 μL 2 mg/mL liver S9 solution; 100 μL of 8 mM NADPH solution; 100 μL of 20 mM UDPGA solution; and 1200 μL of ACN were added, vortexed at 1000 rpm for 5 min, then 1 μL of 4 mM test compound solution was added.
T240 with a co-factor: 199 μL 2 mg/mL liver S9 solution; 100 μL of 8 mM NADPH solution; and 100 μL of 20 mM UDPGA solution were added. The T240 sample was prewarmed at 37° C. for 5 min and 1 μL of 4 mM test compound solution was added. After 240 min incubation, 1200 μL of ACN was added and then vortexed at 1000 rpm for 5 min.
Protein precipitation: quenched samples were centrifuged at 14000 rpm for 5 min.
Sample preparation: an aliquot of 1200 μL of the supernatant was evaporated under N2 stream until dry. Dried extracts were reconstituted with 200 μL of 25% aqueous ACN, vortexed for 2 minutes, centrifuged at 14000 rpm for 5 min, and then 3 μL of reconstituted supernatant were injected for LC-UV-MS analysis.

[3] = target: pGP (Homo sapiens, UniProt P08183); details: not told
pGP, sequence (P08183 whole entry): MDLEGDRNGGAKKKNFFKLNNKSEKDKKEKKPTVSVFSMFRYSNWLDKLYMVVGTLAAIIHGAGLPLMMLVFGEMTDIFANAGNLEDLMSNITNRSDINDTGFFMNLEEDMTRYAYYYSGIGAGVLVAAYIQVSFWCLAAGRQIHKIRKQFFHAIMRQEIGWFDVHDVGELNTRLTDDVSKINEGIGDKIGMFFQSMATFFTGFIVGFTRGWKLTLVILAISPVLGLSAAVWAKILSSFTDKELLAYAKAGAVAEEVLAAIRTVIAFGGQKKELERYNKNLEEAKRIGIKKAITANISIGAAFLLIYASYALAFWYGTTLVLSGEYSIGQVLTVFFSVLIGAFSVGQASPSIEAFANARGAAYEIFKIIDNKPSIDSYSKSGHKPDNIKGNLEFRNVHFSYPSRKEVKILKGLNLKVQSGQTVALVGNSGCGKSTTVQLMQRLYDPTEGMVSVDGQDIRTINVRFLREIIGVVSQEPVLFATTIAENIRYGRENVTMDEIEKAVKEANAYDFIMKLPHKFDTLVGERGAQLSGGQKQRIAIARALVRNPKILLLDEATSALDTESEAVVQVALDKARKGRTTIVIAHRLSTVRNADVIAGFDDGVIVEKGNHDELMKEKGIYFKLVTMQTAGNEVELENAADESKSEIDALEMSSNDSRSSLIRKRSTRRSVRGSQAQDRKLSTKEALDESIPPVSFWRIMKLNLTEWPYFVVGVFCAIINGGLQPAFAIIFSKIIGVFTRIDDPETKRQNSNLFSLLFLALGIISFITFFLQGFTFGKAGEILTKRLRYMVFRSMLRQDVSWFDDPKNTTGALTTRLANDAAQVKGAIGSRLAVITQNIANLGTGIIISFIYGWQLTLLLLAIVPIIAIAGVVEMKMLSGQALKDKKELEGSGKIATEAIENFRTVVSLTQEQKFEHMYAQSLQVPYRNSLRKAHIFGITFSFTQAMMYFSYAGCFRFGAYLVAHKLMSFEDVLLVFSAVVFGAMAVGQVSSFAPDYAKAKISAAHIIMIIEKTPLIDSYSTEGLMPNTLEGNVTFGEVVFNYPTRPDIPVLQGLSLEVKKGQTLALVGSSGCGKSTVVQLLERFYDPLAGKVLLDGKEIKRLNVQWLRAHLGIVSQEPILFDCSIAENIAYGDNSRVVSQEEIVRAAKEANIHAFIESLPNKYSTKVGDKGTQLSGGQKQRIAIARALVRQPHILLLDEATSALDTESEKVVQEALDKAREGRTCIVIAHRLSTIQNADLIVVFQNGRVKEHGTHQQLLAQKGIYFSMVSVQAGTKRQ

[4] = target: T1, BCRP (Homo sapiens, UniProt Q9UNQ0); details: not told
T1 sequence (Q9UNQ0 1-655): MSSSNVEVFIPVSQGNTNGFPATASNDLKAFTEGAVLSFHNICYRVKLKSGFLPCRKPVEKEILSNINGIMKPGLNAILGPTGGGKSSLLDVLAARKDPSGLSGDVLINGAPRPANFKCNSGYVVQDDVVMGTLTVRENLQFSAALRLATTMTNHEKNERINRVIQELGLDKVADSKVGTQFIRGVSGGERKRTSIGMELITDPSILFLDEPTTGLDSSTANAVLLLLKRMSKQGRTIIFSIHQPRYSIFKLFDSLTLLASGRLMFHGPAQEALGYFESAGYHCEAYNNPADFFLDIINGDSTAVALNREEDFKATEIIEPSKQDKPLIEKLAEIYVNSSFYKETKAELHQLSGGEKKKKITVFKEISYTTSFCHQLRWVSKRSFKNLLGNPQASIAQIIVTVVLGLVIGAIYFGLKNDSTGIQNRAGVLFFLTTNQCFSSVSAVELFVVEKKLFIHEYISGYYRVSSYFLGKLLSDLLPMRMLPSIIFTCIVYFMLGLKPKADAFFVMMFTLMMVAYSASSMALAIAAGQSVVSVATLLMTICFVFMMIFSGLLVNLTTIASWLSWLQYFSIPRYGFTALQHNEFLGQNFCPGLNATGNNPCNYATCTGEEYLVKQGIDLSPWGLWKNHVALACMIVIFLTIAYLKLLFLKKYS

## CC[C@@]1(O)C(=O)OCc2c1cc1n(c2=O)Cc2c-1nc1cc(F)c(C)c3c1c2[C@@H](NC(=O)COCNC(=O)CN)CC3 [ProDXd]
[1]; 0 hr
  % of test compound in whole blood (initial 1 uM as 100%): 100.0%
[1]; 0.25 hr
  % of test compound in whole blood (initial 1 uM as 100%): 63.9%
[1]; 0.5 hr
  % of test compound in whole blood (initial 1 uM as 100%): 39.0%
[1]; 1 hr
  % of test compound in whole blood (initial 1 uM as 100%): 30.7%
[1]; 2 hr
  % of test compound in whole blood (initial 1 uM as 100%): 14.8%
[1]; 4 hr
  % of test compound in whole blood (initial 1 uM as 100%): 2.7%
[1]; 8 hr
  % of test compound in whole blood (initial 1 uM as 100%): 0.3%
[1]; 24 hr
  % of test compound in whole blood (initial 1 uM as 100%): 0.0%
[2]
  Relative UV Abundance* (%), group total: 3.94%
[3]
  pGP efflux rate: Lower
[4]
  BCRP efflux rate: Lower
